Results from ChEMBL document CHEMBL1201862, “PubChem BioAssay data set” (2004).
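Following 48 hours of exposure in 96-well plates, responses at five concentrations were used to interpolate endpoints linearly. The concentration for 50% growth inhibition is given as GI50.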 The source made the active and inactive calls. Cut-off read from the data, not from the text of the source: active = GI50 up to about 1.1 µM and inactive = higher.

Tests used:
Assay in all cases: NCI tumour cell line growth inhibition, 48 h
[1] = system: 786-0
[2] = system: ACHN
[3] = system: CAKI-1
[4] = system: DU-145
[5] = system: HCC 2998
[6] = system: HCT-15
[7] = system: HOP-92
[8] = system: IGROV-1
[9] = system: MDA-MB-231
[10] = system: MDA-MB-435
[11] = system: MDA-N
[12] = system: MOLT-4
[13] = system: NCI-H522
[14] = system: OVCAR-5
[15] = system: OVCAR-8
[16] = system: PC-3
[17] = system: SF-268
[18] = system: SF-539
[19] = system: SK-OV-3
[20] = system: UACC-257

Row | Compound | GI50 [1] | GI50 [2] | GI50 [3] | GI50 [4] | GI50 [5] | GI50 [6] [µM] | GI50 [7] | GI50 [8] | GI50 [9] | GI50 [10] | GI50 [11] | GI50 [12] | GI50 [13] | GI50 [14] | GI50 [15] | GI50 [16] | GI50 [17] | GI50 [18] | GI50 [19] | GI50 [20]
1 | COc1ccc2c(c1)CCc1c-2n(CCN2CCOCC2)c2ccc(OC)cc12 | 82.8 µM (inactive) | 82.2 µM (inactive) | > 100 µM (inactive) | > 100 µM (inactive) | 3.92 µM (inactive) | 41 | > 100 µM (inactive) | 80.2 µM (inactive) | > 100 µM (inactive) | > 100 µM (inactive) | 94.2 µM (inactive) | 12.5 µM (inactive) | > 100 µM (inactive) | > 100 µM (inactive) | > 100 µM (inactive) | 63.2 µM (inactive) | > 100 µM (inactive) | > 100 µM (inactive) | > 100 µM (inactive) | > 100 µM (inactive)
2 | CCOC(=O)c1c(SC(=O)c2ccc(OC)cc2)n(-c2ccccc2)c(=S)n(-c2ccccc2)c1=O | 37.8 µM (inactive) | > 100 µM (inactive) | > 100 µM (inactive) | > 100 µM (inactive) | > 100 µM (inactive) | 23.4 | > 100 µM (inactive) | 21.1 µM (inactive) | 24 µM (inactive) | 54.6 µM (inactive) | > 100 µM (inactive) | 22.5 µM (inactive) | 49.4 µM (inactive) | > 100 µM (inactive) | 21.8 µM (inactive) | 59.3 µM (inactive) | 18.6 µM (inactive) | 21.2 µM (inactive) | > 100 µM (inactive) | > 100 µM (inactive)
3 | OC1c2ccccc2[C@@H]2[C@H]1[C@@H](c1ccccc1)C1(Cc3ccccc3C1O)[C@H]2c1ccccc1 (stereo not given in full) | 2.96 µM (inactive) | 6.37 µM (inactive) | 8.09 µM (inactive) | 9.86 µM (inactive) | 1.91 µM (inactive) | 4.07 | 3.35 µM (inactive) | 4.37 µM (inactive) | 5.22 µM (inactive) | 2.82 µM (inactive) | 3.85 µM (inactive) | 2.45 µM (inactive) | 3.03 µM (inactive) | 11.1 µM (inactive) | 5.45 µM (inactive) | 3 µM (inactive) | 6.7 µM (inactive) | 13.4 µM (inactive) | 10.9 µM (inactive) | 3.93 µM (inactive)
4 | CCCCn1c2c(n(CCCC)c1=S)-c1c(n(CCCC)c(=S)n1CCCC)S[Se][Se]S2 | 4.62 µM (inactive) | 2.67 µM (inactive) | 1.62 µM (inactive) | 16.9 µM (inactive) | 23.6 µM (inactive) | 2.94 | 0.942 µM (active) | 2.42 µM (inactive) | 2.33 µM (inactive) | 4.95 µM (inactive) | 8.83 µM (inactive) | 2.87 µM (inactive) | 0.171 µM (active) | 2.17 µM (inactive) | 4.16 µM (inactive) | 2.26 µM (inactive) | 7.13 µM (inactive) | 3.81 µM (inactive) | 22 µM (inactive) | 8.87 µM (inactive)
5 | Cc1ccc(OCC2OC(n3cnc4c(Cl)nc(Cl)nc43)CC2Oc2ccc(C)cc2)cc1 (stereo not given) | 14.5 µM (inactive) | 1.37 µM (inactive) | 1.57 µM (inactive) | 1.91 µM (inactive) | 16.5 µM (inactive) | 1.82 | 2.28 µM (inactive) | 2.04 µM (inactive) | 2.08 µM (inactive) | 2.26 µM (inactive) | 1.93 µM (inactive) | 1.94 µM (inactive) | 1.74 µM (inactive) | 5.78 µM (inactive) | 2.31 µM (inactive) | 2.44 µM (inactive) | 1.96 µM (inactive) | 1.93 µM (inactive) | 19.2 µM (inactive) | 2.68 µM (inactive)
6 | OCc1ccc2c(c1)CC1(C2)Cc2cc3c(cc2C1)CCC3 | 5.51 µM (inactive) | 5.31 µM (inactive) | 6.31 µM (inactive) | 5.89 µM (inactive) | 6.12 µM (inactive) | 2.92 | 8.99 µM (inactive) | 7.87 µM (inactive) | 1.34 µM (inactive) | 0.204 µM (active) | 0.339 µM (active) | 4.41 µM (inactive) | 3.52 µM (inactive) | > 100 µM (inactive) | 10.8 µM (inactive) | 1.19 µM (inactive) | 17.5 µM (inactive) | 3.57 µM (inactive) | 11.4 µM (inactive) | 7.48 µM (inactive)
7 | COc1cccc(N(CN2C(=O)CCC2C(=O)O)C(C)=O)c1 (stereo not given) | > 100 µM (inactive) | > 100 µM (inactive) | > 100 µM (inactive) | > 100 µM (inactive) | > 100 µM (inactive) | > 100 | > 100 µM (inactive) | > 100 µM (inactive) | > 100 µM (inactive) | > 100 µM (inactive) | > 100 µM (inactive) | > 100 µM (inactive) | > 100 µM (inactive) | > 100 µM (inactive) | > 100 µM (inactive) | > 100 µM (inactive) | > 100 µM (inactive) | > 100 µM (inactive) | > 100 µM (inactive) | > 100 µM (inactive)
8 | CCCCCn1c(=O)c2c(=O)[nH][nH]c2c2ccccc21 | > 100 µM (inactive) | > 100 µM (inactive) | > 100 µM (inactive) | > 100 µM (inactive) | > 100 µM (inactive) | > 100 | > 100 µM (inactive) | > 100 µM (inactive) | > 100 µM (inactive) | > 100 µM (inactive) | > 100 µM (inactive) | > 100 µM (inactive) | > 100 µM (inactive) | > 100 µM (inactive) | > 100 µM (inactive) | > 100 µM (inactive) | > 100 µM (inactive) | > 100 µM (inactive) | > 100 µM (inactive) | > 100 µM (inactive)
9 | O=C(/C=C/c1ccccc1)N1CCCCC1 | > 100 µM (inactive) | > 100 µM (inactive) | > 100 µM (inactive) | > 100 µM (inactive) | > 100 µM (inactive) | > 100 | > 100 µM (inactive) | > 100 µM (inactive) | > 100 µM (inactive) | > 100 µM (inactive) | > 100 µM (inactive) | > 100 µM (inactive) | > 100 µM (inactive) | > 100 µM (inactive) | > 100 µM (inactive) | > 100 µM (inactive) | > 100 µM (inactive) | > 100 µM (inactive) | > 100 µM (inactive) | > 100 µM (inactive)
10 | O=C(Nc1ccccc1)c1cc2ccccc2c(/N=N\c2cccc([N+](=O)[O-])c2)c1O | 31.3 µM (inactive) | 31 µM (inactive) | > 100 µM (inactive) | > 100 µM (inactive) | > 100 µM (inactive) | > 100 | > 100 µM (inactive) | 37.7 µM (inactive) | 56.8 µM (inactive) | > 100 µM (inactive) | > 100 µM (inactive) | > 100 µM (inactive) | 5.56 µM (inactive) | > 100 µM (inactive) | 78.2 µM (inactive) | > 100 µM (inactive) | 48.6 µM (inactive) | 54.8 µM (inactive) | 30.3 µM (inactive) | > 100 µM (inactive)
11 | N#Cc1c(N)nc2c3c1NC(=O)C(C(N)=O)C3c1ccccc1O2 (stereo not given) | 37.9 µM (inactive) | > 100 µM (inactive) | > 100 µM (inactive) | 67.6 µM (inactive) | > 100 µM (inactive) | > 100 | 12.9 µM (inactive) | 17.3 µM (inactive) | 28.6 µM (inactive) | > 100 µM (inactive) | > 100 µM (inactive) | > 100 µM (inactive) | 22.1 µM (inactive) | > 100 µM (inactive) | 42.5 µM (inactive) | > 100 µM (inactive) | 26.2 µM (inactive) | 74 µM (inactive) | > 100 µM (inactive) | > 100 µM (inactive)
12 | CCc1ccc(NC(=O)NC(=O)c2ccccc2[N+](=O)[O-])cc1Oc1ncc(Cl)cn1 | 0.0158 µM (active) | 0.0386 µM (active) | < 0.01 µM (active) | 0.0578 µM (active) | 0.027 µM (active) | 0.0141 | < 0.01 µM (active) | < 0.0165 µM (active) | 0.0376 µM (active) | < 0.01 µM (active) | < 0.01 µM (active) | 0.0247 µM (active) | 0.0135 µM (active) | < 0.0301 µM (active) | 0.0264 µM (active) | < 0.01 µM (active) | 0.0287 µM (active) | 0.0137 µM (active) | < 0.0164 µM (active) | < 0.01 µM (active)
13 | COc1cc(C2c3cc4c(cc3[C@H](OCCN(C)C)[C@@H]3COC(=O)C23)OCO4)cc(OC)c1O (stereo not given in full) | 0.0614 µM (active) | 0.0293 µM (active) | 0.0519 µM (active) | 0.134 µM (active) | 0.774 µM (active) | 0.605 | 0.0989 µM (active) | 1.36 µM (inactive) | 2.62 µM (inactive) | 2 µM (inactive) | 2.12 µM (inactive) | < 0.0123 µM (active) | 0.357 µM (active) | 0.738 µM (active) | 0.624 µM (active) | 0.805 µM (active) | 0.194 µM (active) | 0.0671 µM (active) | 0.0912 µM (active) | 1.37 µM (inactive)
14 | CCc1nc(N)nc(N)c1-c1ccc([N+](=O)[O-])c(NCc2ccccc2)c1 | 13.9 µM (inactive) | 15.3 µM (inactive) | 13.7 µM (inactive) | 14.9 µM (inactive) | 15.2 µM (inactive) | 12.3 | 10.6 µM (inactive) | 10.9 µM (inactive) | 14.8 µM (inactive) | 14.6 µM (inactive) | 16 µM (inactive) | 7.5 µM (inactive) | 15.9 µM (inactive) | 22.4 µM (inactive) | 16.5 µM (inactive) | 12.8 µM (inactive) | 14.9 µM (inactive) | 16.3 µM (inactive) | 20.4 µM (inactive) | 12.8 µM (inactive)
